Non-standard residues stand in square brackets, D forms with d. Residues, ends and D or L forms follow the SMILES beside them. *: point of attachment. NMeY = CN[C@@H](Cc1ccc(O)cc1)C(=O)O; NMeF = CN[C@@H](Cc1ccccc1)C(=O)O; NMeV = CN[C@H](C(=O)O)C(C)C; X1 = C#CCCCCC(C)CC(C)C(=O)*; X2 = C#CCCCC[C@H](C)C(=O)*; NMeA = CN[C@@H](C)C(=O)O
Key:
Plasmodium falciparum = assay: Antimalarial activity against chloroquine-resistant Plasmodium falciparum W2 by fluorimetry; assay type: functional, organism-based
Vero = assay: Cytotoxicity against Vero cells after 4 hrs; assay type: cell-based; details: Chlorocebus sabaeus

SMILES | IC50 (Plasmodium falciparum) [µM] | IC50 (Vero) [µM]
C#CCCCC[C@H](C)C(=O)N(C)[C@@H](Cc1ccccc1)C(=O)N[C@@H](C)C(=O)N(C)[C@@H](C)C(=O)N(C)[C@@H](Cc1ccc(OC)cc1)C(N)=O [DRAGOMABIN] (X2-[NMeF]A[NMeA][NMeY](Me)-NH2) | 21 | 182
C#CCCCC[C@H](C)C(=O)N(C)[C@H](C(=O)N(C)[C@H](C(=O)N(C)[C@H](C(=O)N(C)[C@@H](Cc1ccccc1)C(N)=O)C(C)C)C(C)C)C(C)C [DRAGONAMIDE A] (X2-[NMeV][NMeV][NMeV][NMeF]-NH2) | 10.7 | 67.8
C#CCCCCC(C)CC(C)C(=O)N(C)[C@@H](Cc1ccccc1)C(=O)N[C@@H](C)C(=O)N(C)[C@@H](C)C(=O)N(C)[C@@H](Cc1ccc(OC)cc1)C(N)=O (stereo partly specified) [CARMABIN A] (X1-[NMeF]A[NMeA][NMeY](Me)-NH2) | 1.4 | 9.8
